In patent US9730446B2, “Herbicidal compositions comprising 4-amino-3-chloro-6-(4-chloro-2-fluoro-3-methoxyphenyl)pyridine-2-carboxylic acid or a derivative thereof and propyzamide” (Dow AgroSciences LLC, priority 2013, dated 2017):

How the values were obtained:
Format in all cases: in vivo
winter oilseed rape = experiment: Field trial, visual crop injury ratings; conditions: varying rates, crop Growth Stage 39-50, 32, 49, and 74 days after treatment, in each case
Description: (§1) Multiple small plot research experiments were conducted to evaluate efficacy and tolerance of winter oilseed rape to compositions described herein. Typical small plots (2-4×4-10 meters (m)) were used in growers' fields under natural conditions with normal commercial cultural practices. Backpack sprayers were used to apply all treatments based on unit area. The methyl ester of formula (I) and propyzamide were tested alone and in combination at varying rates. Application water volume was 150 L/ha. Crop stage was at Growth Stage 39-50. Visual crop injury ratings were collected 32, 49, and 74 days after treatment. […] The reported values are means.

[1] = tested on: GERSS Geranium sp. (cranesbill); experiment: Field trial, visual weed control in winter oilseed rape
Description: as §1, with “Application water volume was 150 L/ha.” left out, “means. […] The following abbreviations are used in Tables 2-4: • GERSS Geranium sp. (cranesbill) • POAAN Poa annua (annual bluegrass) • VERSS Veronica sp.” for “means.”

[2] = tested on: VERSS Veronica sp. (speedwell); experiment: as above
Description: as §1, with “Application water volume was 150 L/ha.” left out, “means. […] The following abbreviations are used in Tables 2-4: • GERSS Geranium sp. (cranesbill) • POAAN Poa annua (annual bluegrass) • VERSS Veronica sp.” for “means.”

COC(=O)c1nc(-c2ccc(Cl)c(OC)c2F)cc(N)c1Cl [Cmpd I, methyl ester of 4-amino-3-chloro-6-(4-chloro-2-fluoro-3-methoxyphenyl)pyridine-2-carboxylic acid]
Visual crop injury rating (winter oilseed rape): 0 % injury
% control rated visually, ob (observed) ([1]; Cmpd I 1.25 g ae/ha, 32 DAAA): 42.5%
% control rated visually, ob (observed) ([1]; Cmpd I 1.25 g ae/ha, 58 DAAA): 62.5%
% control rated visually, ob (observed) ([1]; Cmpd I 1.25 g ae/ha, 80 DAAA): 53.8%
% control rated visually, ob (observed) ([1]; Cmpd I 2.5 g ae/ha, 32 DAAA): 42.5%
% control rated visually, ob (observed) ([1]; Cmpd I 2.5 g ae/ha, 58 DAAA): 57.5%
% control rated visually, ob (observed) ([1]; Cmpd I 2.5 g ae/ha, 80 DAAA): 67.5%
% control rated visually, ob (observed) ([1]; Cmpd I 5 g ae/ha, 32 DAAA): 89.3%
% control rated visually, ob (observed) ([1]; Cmpd I 5 g ae/ha, 58 DAAA): 77.5%
% control rated visually, ob (observed) ([1]; Cmpd I 5 g ae/ha, 80 DAAA): 69.5%
% control rated visually, ob (observed) ([1]; Cmpd I 7.5 g ae/ha, 32 DAAA): 91.3%
% control rated visually, ob (observed) ([1]; Cmpd I 7.5 g ae/ha, 58 DAAA): 91.3%
% control rated visually, ob (observed) ([1]; Cmpd I 7.5 g ae/ha, 80 DAAA): 99.8%
% control rated visually, ob (observed) ([2]; Cmpd I 1.25 g ae/ha, 32 DAAA): 10.0%
% control rated visually, ob (observed) ([2]; Cmpd I 1.25 g ae/ha, 80 DAAA): 80.0%
% control rated visually, ob (observed) ([2]; Cmpd I 2.5 g ae/ha, 32 DAAA): 26.3%
% control rated visually, ob (observed) ([2]; Cmpd I 2.5 g ae/ha, 80 DAAA): 97.5%
% control rated visually, ob (observed) ([2]; Cmpd I 5 g ae/ha, 32 DAAA): 45.0%
% control rated visually, ob (observed) ([2]; Cmpd I 5 g ae/ha, 80 DAAA): 100.0%
% control rated visually, ob (observed) ([2]; Cmpd I 7.5 g ae/ha, 32 DAAA): 81.3%
% control rated visually, ob (observed) ([2]; Cmpd I 7.5 g ae/ha, 80 DAAA): 100.0%
